Source: article PMC9481151, “Discovery of new symmetrical and asymmetrical nitrile-containing 1,4-dihydropyridine derivatives as dual kinases and P-glycoprotein inhibitors: synthesis, in vitro assays, and in silico studies” (Journal of Enzyme Inhibition and Medicinal Chemistry, 2022)

What was measured:
SK-MEL-5 = assay: NCI single dose (10 µM) SRB screen; type: cell-based, human; conditions: melanoma, 48 h
MOLT-4 = assay: NCI single dose (10 µM) SRB screen; type: cell-based, human; conditions: leukaemia, 48 h
OVCAR-5 = assay: NCI single dose (10 µM) SRB screen; type: cell-based, human; conditions: ovarian cancer, 48 h
HL-60(TB) = assay: NCI single dose (10 µM) SRB screen; type: cell-based, human; conditions: leukaemia, 48 h
786-0 = assay: NCI single dose (10 µM) SRB screen; type: cell-based, human; conditions: renal cancer, 48 h
HCT-116 = assay: NCI single dose (10 µM) SRB screen; type: cell-based, human; conditions: colon cancer, 48 h
KM12 = assay: NCI single dose (10 µM) SRB screen; type: cell-based, human; conditions: colon cancer, 48 h
NCI-H522 = assay: NCI single dose (10 µM) SRB screen; type: cell-based, human; conditions: non-small cell lung cancer, 48 h
SNB-19 = assay: NCI single dose (10 µM) SRB screen; type: cell-based, human; conditions: CNS cancer, 48 h
SR = assay: NCI single dose (10 µM) SRB screen; type: cell-based, human; conditions: leukaemia, 48 h
OVCAR-8 = assay: NCI single dose (10 µM) SRB screen; type: cell-based, human; conditions: ovarian cancer, 48 h
A498 = assay: NCI single dose (10 µM) SRB screen; type: cell-based, human; conditions: renal cancer, 48 h
LOX IMVI = assay: NCI single dose (10 µM) SRB screen; type: cell-based, human; conditions: melanoma, 48 h
COLO 205 = assay: NCI single dose (10 µM) SRB screen; type: cell-based, human; conditions: colon cancer, 48 h
Aspergillus flavus = assay: Agar well diffusion method
SN12C = assay: NCI single dose (10 µM) SRB screen; type: cell-based, human; conditions: renal cancer, 48 h
HT29 = assay: NCI single dose (10 µM) SRB screen; type: cell-based, human; conditions: colon cancer, 48 h
SNB-75 = assay: NCI single dose (10 µM) SRB screen; type: cell-based, human; conditions: CNS cancer, 48 h
Escherichia coli = assay: Agar well diffusion method
UACC-257 = assay: NCI single dose (10 µM) SRB screen; type: cell-based, human; conditions: melanoma, 48 h
SW-620 = assay: NCI single dose (10 µM) SRB screen; type: cell-based, human; conditions: colon cancer, 48 h
RPMI-8226 = assay: NCI single dose (10 µM) SRB screen; type: cell-based, human; conditions: leukaemia, 48 h
CAKI-1 = assay: NCI single dose (10 µM) SRB screen; type: cell-based, human; conditions: renal cancer, 48 h
ACHN = assay: NCI single dose (10 µM) SRB screen; type: cell-based, human; conditions: renal cancer, 48 h
Staphylococcus aureus = assay: Agar well diffusion method
MDA-MB-435 = assay: NCI single dose (10 µM) SRB screen; type: cell-based, human; conditions: melanoma, 48 h
NCI-H23 = assay: NCI single dose (10 µM) SRB screen; type: cell-based, human; conditions: non-small cell lung cancer, 48 h
MDA-MB-468 = assay: NCI single dose (10 µM) SRB screen; type: cell-based, human; conditions: breast cancer, 48 h
Bacillus subtilis = assay: Agar well diffusion method
DU-145 = assay: NCI single dose (10 µM) SRB screen; type: cell-based, human; conditions: prostate cancer, 48 h
A549/ATCC = assay: NCI single dose (10 µM) SRB screen; type: cell-based, human; conditions: non-small cell lung cancer, 48 h
CCRF-CEM = assay: NCI single dose (10 µM) SRB screen; type: cell-based, human; conditions: leukaemia, 48 h
IGROV1 = assay: NCI single dose (10 µM) SRB screen; type: cell-based, human; conditions: ovarian cancer, 48 h
OVCAR-3 = assay: NCI single dose (10 µM) SRB screen; type: cell-based, human; conditions: ovarian cancer, 48 h
NCI 60 cancer cell lines = assay: NCI single dose (10 µM) SRB screen, mean over panel; type: cell-based, human; conditions: mean over 60 cell lines, 48 h
NCI-H226 = assay: NCI single dose (10 µM) SRB screen; type: cell-based, human; conditions: non-small cell lung cancer, 48 h
SF-268 = assay: NCI single dose (10 µM) SRB screen; type: cell-based, human; conditions: CNS cancer, 48 h
NCI/ADR-RES = assay: NCI single dose (10 µM) SRB screen; type: cell-based, human; conditions: ovarian cancer, 48 h
SK-OV-3 = assay: NCI single dose (10 µM) SRB screen; type: cell-based, human; conditions: ovarian cancer, 48 h
OVCAR-4 = assay: NCI single dose (10 µM) SRB screen; type: cell-based, human; conditions: ovarian cancer, 48 h
PC-3 = assay: NCI single dose (10 µM) SRB screen; type: cell-based, human; conditions: prostate cancer, 48 h
NCI-H322M = assay: NCI single dose (10 µM) SRB screen; type: cell-based; conditions: non-small cell lung cancer, 48 h
SF-539 = assay: NCI single dose (10 µM) SRB screen; type: cell-based, human; conditions: CNS cancer, 48 h
U251 = assay: NCI single dose (10 µM) SRB screen; type: cell-based, human; conditions: CNS cancer, 48 h
M14 = assay: NCI single dose (10 µM) SRB screen; type: cell-based, human; conditions: melanoma, 48 h
SF-295 = assay: NCI single dose (10 µM) SRB screen; type: cell-based, human; conditions: CNS cancer, 48 h
MALME-3M = assay: NCI single dose (10 µM) SRB screen; type: cell-based, human; conditions: melanoma, 48 h
SK-MEL-28 = assay: NCI single dose (10 µM) SRB screen; type: cell-based, human; conditions: melanoma, 48 h
NCI-H460 = assay: NCI single dose (10 µM) SRB screen; type: cell-based, human; conditions: non-small cell lung cancer, 48 h
RXF 393 = assay: NCI single dose (10 µM) SRB screen; type: cell-based, human; conditions: renal cancer, 48 h
MCF7 = assay: NCI single dose (10 µM) SRB screen; type: cell-based, human; conditions: breast cancer, 48 h
TK-10 = assay: NCI single dose (10 µM) SRB screen; type: cell-based, human; conditions: renal cancer, 48 h

CCOC(=O)C1=C(C)NC(C)=C(C(=O)OCC)C1c1cccc(C#N)c1 [Compound 1b, Diethyl 4-(3-cyanophenyl)-2,6-dimethyl-1,4-dihydropyridine-3,5-dicarboxylate]
GI% SK-MEL-5 (SK-MEL-5): – (Only GI% ≥ 10 are shown)
GI% MOLT-4 (MOLT-4): – (Only GI% ≥ 10 are shown)
GI% OVCAR-5 (OVCAR-5): – (Only GI% ≥ 10 are shown)
GI% HL-60(TB) (HL-60(TB)): 13%
GI% 786-0 (786-0): – (Only GI% ≥ 10 are shown)
GI% HCT-116 (HCT-116): 11%
GI% KM12 (KM12): 27%
GI% NCI-H522 (NCI-H522): 12%
GI% SNB-19 (SNB-19): – (Only GI% ≥ 10 are shown)
GI% SR (SR): 48%
GI% OVCAR-8 (OVCAR-8): – (Only GI% ≥ 10 are shown)
GI% A498 (A498): – (Only GI% ≥ 10 are shown)
GI% LOX IMVI (LOX IMVI): – (Only GI% ≥ 10 are shown)
GI% COLO 205 (COLO 205): – (Only GI% ≥ 10 are shown)
zone of inhibition at 1000 µg/mL (Aspergillus flavus; Aspergillus flavus, 24 h, read-out: Diameter of inhibition zone, A. flavus): 16 mm
% activity index, A. flavus (Aspergillus flavus; relative to clotrimazole): 64%
GI% SN12C (SN12C): – (Only GI% ≥ 10 are shown)
GI% HT29 (HT29): – (Only GI% ≥ 10 are shown)
GI% SNB-75 (SNB-75): 38%
zone of inhibition at 1000 µg/mL (Escherichia coli; Escherichia coli, 24 h, read-out: Diameter of inhibition zone, E. coli): 7 mm
% activity index, E. coli (Escherichia coli; relative to ciprofloxacin): 26.9%
GI% UACC-257 (UACC-257): – (Only GI% ≥ 10 are shown)
GI% SW-620 (SW-620): – (Only GI% ≥ 10 are shown)
GI% RPMI-8226 (RPMI-8226): – (Only GI% ≥ 10 are shown)
GI% CAKI-1 (CAKI-1): 31%
GI% ACHN (ACHN): – (Only GI% ≥ 10 are shown)
zone of inhibition at 1000 µg/mL (Staphylococcus aureus; Staphylococcus aureus, 24 h, read-out: Diameter of inhibition zone, S. aureus): 14 mm
% activity index, S. aureus (Staphylococcus aureus; relative to ciprofloxacin): 58.3%
GI% MDA-MB-435 (MDA-MB-435): 42%
GI% NCI-H23 (NCI-H23): – (Only GI% ≥ 10 are shown)
GI% MDA-MB-468 (MDA-MB-468): 22%
zone of inhibition at 1000 µg/mL (Bacillus subtilis; Bacillus subtilis, 24 h, read-out: Diameter of inhibition zone, B. subtilis): 9 mm
% activity index, B. subtilis (Bacillus subtilis; relative to ciprofloxacin): 39.1%
GI% DU-145 (DU-145): – (Only GI% ≥ 10 are shown)
GI% A549/ATCC (A549/ATCC): – (Only GI% ≥ 10 are shown)
GI% CCRF-CEM (CCRF-CEM): – (Only GI% ≥ 10 are shown)
GI% IGROV1 (IGROV1): – (Only GI% ≥ 10 are shown)
GI% OVCAR-3 (OVCAR-3): – (Only GI% ≥ 10 are shown)
Mean GI% (NCI 60 cancer cell lines): 8%
GI% NCI-H226 (NCI-H226): – (Only GI% ≥ 10 are shown)
GI% SF-268 (SF-268): – (Only GI% ≥ 10 are shown)
GI% NCI/ADR-RES (NCI/ADR-RES): – (Only GI% ≥ 10 are shown)
GI% SK-OV-3 (SK-OV-3): – (Only GI% ≥ 10 are shown)
GI% OVCAR-4 (OVCAR-4): – (Only GI% ≥ 10 are shown)
GI% PC-3 (PC-3): 20%
GI% NCI-H322M (NCI-H322M): – (Only GI% ≥ 10 are shown)
GI% SF-539 (SF-539): – (Only GI% ≥ 10 are shown)
GI% U251 (U251): – (Only GI% ≥ 10 are shown)
GI% M14 (M14): – (Only GI% ≥ 10 are shown)
GI% SF-295 (SF-295): – (Only GI% ≥ 10 are shown)
GI% MALME-3M (MALME-3M): – (Only GI% ≥ 10 are shown)
GI% SK-MEL-28 (SK-MEL-28): – (Only GI% ≥ 10 are shown)
GI% NCI-H460 (NCI-H460): – (Only GI% ≥ 10 are shown)
GI% RXF 393 (RXF 393): 10%
GI% MCF7 (MCF7): 15%
GI% TK-10 (TK-10): – (Only GI% ≥ 10 are shown)
